Assay results reported in patent publication EP4585606A1, “OL[…] USE AND COMPOSITION THEREOF” (Buddhist Tzu Chi Medical Foundation, priority 2022, dated 2024).

System: human osteoblastic cells hFOB1.19
Assay: alkaline phosphatase (ALP) activity, TRACP & ALP detection kit
Format: cell-based
Conditions: hFOB1.19 not treated with the oligopeptides, CaCl2 0.01, 0.06, 0.2, 0.9 and 3.6 µM, 2 days
Description: The activity of alkaline phosphatase was measured by a TRACP & ALP detection kit. hFOB1.19 cells were cultured at 2×10^4 cells/well in a 96-well plate for 2 days. After removing the supernatant of the culture, the cells were resuspended in physiological saline. To each well 50 µl of the extract solution was added, and incubated at room temperature for 5 minutes. Then, 50 µl of the matrix solution was added to each well and reacted at 37°C for 60 minutes. Finally, 50 µl of 0.5N NaOH was added to each well to terminate the reaction. After formation of color, the solution was measured for the absorbance at 405 nm.
Alkaline phosphatase is present in bone at a high level, and frequently considered as the indicator for differentiation of osteoblastic cells and growth of bone. In Example 6, human osteoblastic cells hFOB1.19 was not treated with the oligopeptide at the condition of different concentrations of CaCl2, and was treated with the four oligopeptides (0.45 µM) described above at the condition of 3.6 µM CaCl2 for 2 days, to detect the ALP activities in human osteoblastic cells hFOB1.19. […] (In FIGs. 6A and 6B, three separate experiments were performed for each group, and the data were expressed by mean ± SD. Statistical significance: by one-tailed test, *P < 0.05, in respect to the Control groups (A-D).

Structure (SMILES): [Ca+2].[Cl-].[Cl-] [CaCl2]
- ALP activities: no significant change
